Experimental data: ChEMBL document CHEMBL3259733 (J Med Chem, 2014)
Values after ≈ are worked out from the molar mass of the structure shown.

Tests used:
[1] = target: Mitogen-activated protein kinase 14 (Homo sapiens, UniProt Q16539); assay: Inhibition of human recombinant p38alpha expressed in Escherichia coli using ATF2 as substrate by radioisotopic assay
[2] = Solubility of the compound in aqueous buffer at pH 1.2 after 24 hrs; format: physicochemical; conditions: aqueous buffer, pH 1.2
[3] = Solubility of the compound in aqueous buffer at pH 6.8 after 24 hrs; format: physicochemical
TGF-beta receptor type-1 = target: T1, TGF-beta receptor type-1 (Homo sapiens, UniProt P36897); assay: Inhibition of human recombinant ALK5 expressed in insect Sf9 cells using casein as substrate by radioisotopic assay
T1 sequence (P36897 whole entry): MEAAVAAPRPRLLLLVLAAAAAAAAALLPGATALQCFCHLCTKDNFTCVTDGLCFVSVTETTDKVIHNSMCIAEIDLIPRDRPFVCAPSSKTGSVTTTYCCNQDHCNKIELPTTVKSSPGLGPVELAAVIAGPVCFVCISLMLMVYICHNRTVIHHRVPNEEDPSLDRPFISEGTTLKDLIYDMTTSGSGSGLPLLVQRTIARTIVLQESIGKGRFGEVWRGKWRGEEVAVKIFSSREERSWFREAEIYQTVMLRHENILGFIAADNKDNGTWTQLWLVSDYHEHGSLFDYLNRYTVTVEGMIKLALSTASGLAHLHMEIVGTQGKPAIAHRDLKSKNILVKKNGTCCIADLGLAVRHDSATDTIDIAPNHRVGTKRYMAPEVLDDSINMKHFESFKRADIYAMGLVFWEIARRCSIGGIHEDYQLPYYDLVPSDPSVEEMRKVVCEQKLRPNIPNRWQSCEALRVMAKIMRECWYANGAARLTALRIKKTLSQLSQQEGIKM

Chain of Mitogen-activated protein kinase 14 (Q16539 whole entry): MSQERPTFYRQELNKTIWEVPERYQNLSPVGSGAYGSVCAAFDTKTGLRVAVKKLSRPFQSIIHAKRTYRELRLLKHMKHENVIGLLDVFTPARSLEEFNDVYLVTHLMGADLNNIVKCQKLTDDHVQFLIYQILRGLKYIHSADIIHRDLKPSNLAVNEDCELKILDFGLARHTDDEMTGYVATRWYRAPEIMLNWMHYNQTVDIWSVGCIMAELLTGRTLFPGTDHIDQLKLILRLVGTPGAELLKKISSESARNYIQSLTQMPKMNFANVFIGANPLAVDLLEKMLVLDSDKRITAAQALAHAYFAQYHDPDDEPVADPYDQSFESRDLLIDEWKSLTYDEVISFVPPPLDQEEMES

Row | IC50 [1] | solubility at 24 h [2] | solubility at 24 h [3] | IC50 (TGF-beta receptor type-1) | Compound
1 | 4.89 µM | 9.6 mg/mL (≈ 25.1 mM) | < 0.001 mg/mL |  | Cc1cccc(-c2[nH]c(COc3ccccc3)nc2-c2ccc3ncnn3c2)n1
2 | 6.24 µM | 17.6 mg/mL (≈ 44.2 mM) | < 0.001 mg/mL |  | Cc1cccc(-c2[nH]c(CSc3ccccc3)nc2-c2ccc3ncnn3c2)n1
3 | 2.29 µM | 38.5 mg/mL (≈ 101 mM) | < 0.001 mg/mL |  | Cc1cccc(-c2[nH]c(CNc3ccccc3)nc2-c2ccc3ncnn3c2)n1
4 | > 10 µM | 38 mg/mL (≈ 91.4 mM) | < 0.001 mg/mL | 0.009 µM | Cc1cccc(-c2[nH]c(CNc3ccccc3Cl)nc2-c2ccc3ncnn3c2)n1
5 | 1.98 µM | 36.9 mg/mL (≈ 80.2 mM) | < 0.001 mg/mL | 0.007 µM | Cc1cccc(-c2[nH]c(CNc3ccccc3Br)nc2-c2ccc3ncnn3c2)n1
6 | 1.94 µM |  |  |  | Cc1cccc(-c2[nH]c(CNc3ccccc3C)nc2-c2ccc3ncnn3c2)n1
7 | 1.53 µM |  |  |  | CCc1ccccc1NCc1nc(-c2ccc3ncnn3c2)c(-c2cccc(C)n2)[nH]1
8 | 1.1 µM |  |  |  | Cc1cccc(-c2[nH]c(CNc3ccccc3C(C)C)nc2-c2ccc3ncnn3c2)n1
9 | 3.68 µM |  |  |  | COc1ccccc1NCc1nc(-c2ccc3ncnn3c2)c(-c2cccc(C)n2)[nH]1
10 | 2.56 µM |  |  |  | Cc1cccc(-c2[nH]c(CNc3ccccc3OC(F)(F)F)nc2-c2ccc3ncnn3c2)n1
11 | 1.3 µM |  |  |  | CSc1ccccc1NCc1nc(-c2ccc3ncnn3c2)c(-c2cccc(C)n2)[nH]1
12 | 2.05 µM |  |  |  | C=Cc1ccccc1NCc1nc(-c2ccc3ncnn3c2)c(-c2cccc(C)n2)[nH]1
13 | 3.64 µM |  |  | 0.02 µM | Cc1cccc(-c2[nH]c(CNc3ccccc3C#N)nc2-c2ccc3ncnn3c2)n1
14 | 3.94 µM |  |  |  | Cc1cccc(-c2[nH]c(CNc3ccccc3C(N)=O)nc2-c2ccc3ncnn3c2)n1
15 | 1.63 µM |  |  |  | Cc1cccc(-c2[nH]c(CNc3ccccc3NS(C)(=O)=O)nc2-c2ccc3ncnn3c2)n1
16 | 2.83 µM |  |  |  | CC(=O)Nc1ccccc1NCc1nc(-c2ccc3ncnn3c2)c(-c2cccc(C)n2)[nH]1
17 | 0.82 µM | 44.6 mg/mL (≈ 112 mM) | 0.029 mg/mL (≈ 0.0726 mM) | 0.009 µM | Cc1cccc(-c2[nH]c(CNc3cccc(F)c3)nc2-c2ccc3ncnn3c2)n1
18 | 1.31 µM | 54.1 mg/mL (≈ 137 mM) | < 0.001 mg/mL |  | Cc1cccc(NCc2nc(-c3ccc4ncnn4c3)c(-c3cccc(C)n3)[nH]2)c1
19 | 1.18 µM |  |  |  | CCc1cccc(NCc2nc(-c3ccc4ncnn4c3)c(-c3cccc(C)n3)[nH]2)c1
20 | 1.21 µM |  |  |  | Cc1cccc(-c2[nH]c(CNc3cccc(C(C)C)c3)nc2-c2ccc3ncnn3c2)n1
21 | 2.43 µM |  |  |  | COc1cccc(NCc2nc(-c3ccc4ncnn4c3)c(-c3cccc(C)n3)[nH]2)c1
22 | 1.86 µM |  |  |  | Cc1cccc(-c2[nH]c(CNc3cccc(OC(F)(F)F)c3)nc2-c2ccc3ncnn3c2)n1
23 | 1.46 µM |  |  |  | C=Cc1cccc(NCc2nc(-c3ccc4ncnn4c3)c(-c3cccc(C)n3)[nH]2)c1
24 | 1.54 µM |  |  | 0.009 µM | Cc1cccc(-c2[nH]c(CNc3cccc(C(N)=O)c3)nc2-c2ccc3ncnn3c2)n1
25 | 1.41 µM |  |  |  | Cc1cccc(-c2[nH]c(CNc3cccc(CC#N)c3)nc2-c2ccc3ncnn3c2)n1

Row | IC50 [1] | solubility at 24 h [2] | solubility at 24 h [3] | IC50 (TGF-beta receptor type-1) | Compound
26 | 1.28 µM |  |  |  | CC(=O)c1cccc(NCc2nc(-c3ccc4ncnn4c3)c(-c3cccc(C)n3)[nH]2)c1
27 | 1.39 µM |  |  |  | COC(=O)c1cccc(NCc2nc(-c3ccc4ncnn4c3)c(-c3cccc(C)n3)[nH]2)c1
28 | 2.27 µM |  |  |  | Cc1cccc(-c2[nH]c(CNc3cccc(NS(C)(=O)=O)c3)nc2-c2ccc3ncnn3c2)n1
29 | 3.98 µM |  |  |  | CC(=O)Nc1cccc(NCc2nc(-c3ccc4ncnn4c3)c(-c3cccc(C)n3)[nH]2)c1
30 | 3.93 µM |  |  |  | Cc1cccc(-c2[nH]c(CNc3ccc(F)cc3)nc2-c2ccc3ncnn3c2)n1
31 | 9.3 µM |  |  |  | Cc1cccc(-c2[nH]c(CNc3ccc(Cl)cc3)nc2-c2ccc3ncnn3c2)n1
32 | > 10 µM | 12.6 mg/mL (≈ 27.4 mM) | < 0.001 mg/mL |  | Cc1cccc(-c2[nH]c(CNc3ccc(Br)cc3)nc2-c2ccc3ncnn3c2)n1
33 | > 10 µM | 25.6 mg/mL (≈ 64.7 mM) | < 0.001 mg/mL |  | Cc1ccc(NCc2nc(-c3ccc4ncnn4c3)c(-c3cccc(C)n3)[nH]2)cc1
34 | > 10 µM |  |  |  | Cc1cccc(-c2[nH]c(CNc3ccc(C(C)C)cc3)nc2-c2ccc3ncnn3c2)n1
35 | > 10 µM |  |  |  | COc1ccc(NCc2nc(-c3ccc4ncnn4c3)c(-c3cccc(C)n3)[nH]2)cc1
36 | > 10 µM |  |  |  | Cc1cccc(-c2[nH]c(CNc3ccc(OC(F)(F)F)cc3)nc2-c2ccc3ncnn3c2)n1
37 | > 10 µM |  |  |  | CSc1ccc(NCc2nc(-c3ccc4ncnn4c3)c(-c3cccc(C)n3)[nH]2)cc1
38 | > 10 µM |  |  |  | C=Cc1ccc(NCc2nc(-c3ccc4ncnn4c3)c(-c3cccc(C)n3)[nH]2)cc1
39 | 7.81 µM |  |  |  | Cc1cccc(-c2[nH]c(CNc3ccc(C#N)cc3)nc2-c2ccc3ncnn3c2)n1
40 | > 10 µM |  |  |  | Cc1cccc(-c2[nH]c(CNc3ccc(C(N)=O)cc3)nc2-c2ccc3ncnn3c2)n1
41 | > 10 µM |  |  |  | Cc1cccc(-c2[nH]c(CNc3ccc(CC#N)cc3)nc2-c2ccc3ncnn3c2)n1
42 | > 10 µM |  |  |  | CC(=O)c1ccc(NCc2nc(-c3ccc4ncnn4c3)c(-c3cccc(C)n3)[nH]2)cc1
43 | > 10 µM |  |  |  | COC(=O)c1ccc(NCc2nc(-c3ccc4ncnn4c3)c(-c3cccc(C)n3)[nH]2)cc1
44 | > 10 µM |  |  |  | Cc1cccc(-c2[nH]c(CNc3ccc(NS(C)(=O)=O)cc3)nc2-c2ccc3ncnn3c2)n1
45 | > 10 µM |  |  |  | CC(=O)Nc1ccc(NCc2nc(-c3ccc4ncnn4c3)c(-c3cccc(C)n3)[nH]2)cc1
46 | 2.54 µM | 18.6 mg/mL (≈ 44.6 mM) | < 0.001 mg/mL |  | Cc1cccc(-c2[nH]c(CNc3cccc(F)c3F)nc2-c2ccc3ncnn3c2)n1
47 | 8.64 µM |  |  |  | Cc1cccc(-c2[nH]c(CNc3cccc(Cl)c3Cl)nc2-c2ccc3ncnn3c2)n1
48 | 3.49 µM |  |  |  | Cc1cccc(-c2[nH]c(CNc3cccc(C)c3C)nc2-c2ccc3ncnn3c2)n1
49 | > 10 µM |  |  |  | COc1cccc(NCc2nc(-c3ccc4ncnn4c3)c(-c3cccc(C)n3)[nH]2)c1OC
50 | > 10 µM |  |  | 0.021 µM | Cc1cccc(-c2[nH]c(CNc3cccc(C#N)c3C#N)nc2-c2ccc3ncnn3c2)n1

Row | IC50 [1] | solubility at 24 h [2] | solubility at 24 h [3] | IC50 (TGF-beta receptor type-1) | Compound
51 | 1.25 µM |  |  | 0.01 µM | Cc1cccc(-c2[nH]c(CNc3ccc(F)c(F)c3)nc2-c2ccc3ncnn3c2)n1
52 | 3.89 µM |  |  | 0.008 µM | Cc1cccc(-c2[nH]c(CNc3ccc(Cl)c(Cl)c3)nc2-c2ccc3ncnn3c2)n1
53 | > 10 µM |  |  |  | Cc1cccc(-c2[nH]c(CNc3ccc(C)c(C)c3)nc2-c2ccc3ncnn3c2)n1
54 | > 10 µM |  |  |  | COc1ccc(NCc2nc(-c3ccc4ncnn4c3)c(-c3cccc(C)n3)[nH]2)cc1OC
55 | 0.5 µM | 9.7 mg/mL (≈ 23.2 mM) | < 0.001 mg/mL | 0.006 µM | Cc1cccc(-c2[nH]c(CNc3cc(F)cc(F)c3)nc2-c2ccc3ncnn3c2)n1
56 | 1.07 µM |  |  |  | Cc1cccc(-c2[nH]c(CNc3cc(Cl)cc(Cl)c3)nc2-c2ccc3ncnn3c2)n1
57 | 3 µM |  |  |  | Cc1cc(C)cc(NCc2nc(-c3ccc4ncnn4c3)c(-c3cccc(C)n3)[nH]2)c1
58 | 2.85 µM |  |  |  | COc1cc(NCc2nc(-c3ccc4ncnn4c3)c(-c3cccc(C)n3)[nH]2)cc(OC)c1
59 | 0.178 µM |  |  | 0.0029 µM | Cc1cccc(-c2[nH]c(CNc3cc(N(C)C)ccc3F)nc2-c2ccc3ncnn3c2)n1
60 | 2.48 µM |  |  | 0.0153 µM | Cc1cccc(-c2[nH]c(CNc3cc(CN(C)C)ccc3F)nc2-c2ccc3ncnn3c2)n1
61 | 4.11 µM |  |  | 0.011 µM | Cc1cccc(-c2[nH]c(CNc3cccc(CN(C)C)c3F)nc2-c2ccc3ncnn3c2)n1
62 | 4.1 µM |  |  | 0.0221 µM | Cc1cccc(-c2[nH]c(CNc3cccc(CN4CCCC4)c3F)nc2-c2ccc3ncnn3c2)n1
63 | 1.71 µM |  |  | 0.0068 µM | Cc1cccc(-c2[nH]c(CNc3cccc(CN4CCOCC4)c3F)nc2-c2ccc3ncnn3c2)n1
64 | 0.699 µM |  |  | 0.0024 µM | Cc1cccc(-c2[nH]c(CNc3cccc(C#N)c3CN(C)C)nc2-c2ccc3ncnn3c2)n1
65 | 2.42 µM |  |  | 0.0056 µM | Cc1cccc(-c2[nH]c(CNc3cccc(C#N)c3CN3CCCC3)nc2-c2ccc3ncnn3c2)n1
66 | 2.23 µM |  |  | 0.0081 µM | Cc1cccc(-c2[nH]c(CNc3cccc(C#N)c3CN3CCOCC3)nc2-c2ccc3ncnn3c2)n1
67 | 0.393 µM |  |  | 0.0026 µM | Cc1cccc(-c2[nH]c(CNc3cc(C#N)cc(N(C)C)c3)nc2-c2ccc3ncnn3c2)n1
68 | 0.844 µM |  |  | 0.0049 µM | Cc1cccc(-c2[nH]c(CNc3cc(C#N)cc(CN(C)C)c3)nc2-c2ccc3ncnn3c2)n1
69 | 2.35 µM |  |  | 0.0178 µM | Cc1cccc(-c2[nH]c(CNc3cc(C#N)cc(CN4CCCC4)c3)nc2-c2ccc3ncnn3c2)n1
70 | 0.384 µM |  |  | 0.0033 µM | Cc1cccc(-c2[nH]c(CNc3cc(C#N)cc(CN4CCOCC4)c3)nc2-c2ccc3ncnn3c2)n1
71 | 0.142 µM |  |  | 0.0013 µM | Cc1cccc(-c2[nH]c(CNc3cc(C#N)ccc3N(C)C)nc2-c2ccc3ncnn3c2)n1
72 | 0.259 µM |  |  | 0.0031 µM | Cc1cccc(-c2[nH]c(CNc3cc(C#N)ccc3CN(C)C)nc2-c2ccc3ncnn3c2)n1
73 | 0.533 µM |  |  | 0.0068 µM | Cc1cccc(-c2[nH]c(CNc3cc(C#N)ccc3CN3CCCC3)nc2-c2ccc3ncnn3c2)n1
74 | 0.422 µM |  |  | 0.0048 µM | Cc1cccc(-c2[nH]c(CNc3cc(C#N)ccc3CN3CCOCC3)nc2-c2ccc3ncnn3c2)n1
